Experimental data as given in ChEMBL document CHEMBL1201862, “PubChem BioAssay data set” (2004).
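Five compound concentrations were applied to cells in 96-well plates for 48 hours; endpoints were derived by simple linear interpolation of the resulting dose-response curve. Here, GI50 denotes the concentration required for 50% inhibition of growth.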 Calls of active or inactive are those of the source. No stated cut-off is given here; in the data, active = GI50 up to about 1.1 µM and inactive = higher.

Columns and labels:
Assay in all cases: NCI anticancer screen, dose series, 48 h
NCI-H226 = test system: NCI-H226
EKVX = test system: EKVX
LOX IMVI = test system: LOX IMVI
NCI/ADR-RES = test system: NCI/ADR-RES
COLO 205 = test system: COLO 205
CAKI-1 = test system: CAKI-1
Malme-3M = test system: Malme-3M
IGROV-1 = test system: IGROV-1
UO-31 = test system: UO-31
U-251 = test system: U-251
BT-549 = test system: BT-549
SNB-19 = test system: SNB-19
OVCAR-3 = test system: OVCAR-3
UACC-257 = test system: UACC-257
KM12 = test system: KM12
SF-539 = test system: SF-539
Hs-578T = test system: Hs-578T
HOP-92 = test system: HOP-92
SK-MEL-5 = test system: SK-MEL-5
OVCAR-4 = test system: OVCAR-4

SMILES | GI50 (NCI-H226) | GI50 (EKVX) | GI50 (LOX IMVI) | GI50 (NCI/ADR-RES) | GI50 (COLO 205) | GI50 (CAKI-1) | GI50 (Malme-3M) | GI50 (IGROV-1) | GI50 (UO-31) | GI50 (U-251) | GI50 (BT-549) | GI50 (SNB-19) | GI50 (OVCAR-3) | GI50 (UACC-257) | GI50 (KM12) | GI50 (SF-539) | GI50 (Hs-578T) | GI50 (HOP-92) | GI50 (SK-MEL-5) | GI50 (OVCAR-4)
Nc1nc(Cl)c(CO)c(NCC2(CO)CCC2)n1 | > 100 µM (inactive) | > 100 µM (inactive) | > 100 µM (inactive) | > 100 µM (inactive) | > 100 µM (inactive) | > 100 µM (inactive) | > 100 µM (inactive) | > 100 µM (inactive) | > 100 µM (inactive) | > 100 µM (inactive) | > 100 µM (inactive) | 94.2 µM (inactive) | > 100 µM (inactive) | > 100 µM (inactive) | 75.7 µM (inactive) | > 100 µM (inactive) | > 100 µM (inactive) | > 100 µM (inactive) | > 100 µM (inactive) | > 100 µM (inactive)
[N-]=[N+]=NCC1OCC(O)C(OCc2ccccc2)C1OCc1ccccc1 (stereo not given) | 55 µM (inactive) | 48.4 µM (inactive) | > 100 µM (inactive) | > 100 µM (inactive) | > 100 µM (inactive) | > 100 µM (inactive) | > 10 µM (inactive) | 79.3 µM (inactive) | 65.2 µM (inactive) | > 100 µM (inactive) | 28.9 µM (inactive) | > 100 µM (inactive) | > 100 µM (inactive) | 66.8 µM (inactive) | 41 µM (inactive) | > 100 µM (inactive) | > 100 µM (inactive) | 65.3 µM (inactive) | 95.9 µM (inactive) | > 100 µM (inactive)
COc1cccc(NC(=O)CC(=O)N2N=C(C)C(/N=N/c3ccc(S(=O)(=O)CCOS(=O)(=O)O)cc3)C2=O)c1 (stereo not given) | 4.66 µM (inactive) | 17.7 µM (inactive) | 1.5 µM (inactive) | 4.2 µM (inactive) | 7.1 µM (inactive) | 2.45 µM (inactive) | 11.1 µM (inactive) | 4.86 µM (inactive) | 12.1 µM (inactive) | 4.89 µM (inactive) | 3.35 µM (inactive) | 17 µM (inactive) | 4.21 µM (inactive) | 8.93 µM (inactive) | 11.6 µM (inactive) | 12.5 µM (inactive) | 14 µM (inactive) | 2.21 µM (inactive) | 3.52 µM (inactive) | 1.58 µM (inactive)
O=[N+]([O-])/C=C/c1cc2ccccc2[nH]1 | 19.1 µM (inactive) | 29.2 µM (inactive) | 14.2 µM (inactive) | 32.1 µM (inactive) | 17.2 µM (inactive) | 17.4 µM (inactive) | 27.5 µM (inactive) | 12.2 µM (inactive) | 14.8 µM (inactive) | 12.4 µM (inactive) | 15.6 µM (inactive) | 17.5 µM (inactive) | 14.8 µM (inactive) | 15.4 µM (inactive) | 12.2 µM (inactive) | 9.84 µM (inactive) | 22.5 µM (inactive) | 19.8 µM (inactive) | 14.7 µM (inactive) | 14.1 µM (inactive)
Nc1nc2c(c(-c3cccc(Cl)c3)n1)COC/C2=C\c1cccc(Cl)c1 | > 100 µM (inactive) | > 100 µM (inactive) | > 100 µM (inactive) | > 100 µM (inactive) | > 100 µM (inactive) | > 100 µM (inactive) | 37.9 µM (inactive) | 94.2 µM (inactive) | 25 µM (inactive) | > 100 µM (inactive) | > 100 µM (inactive) | > 100 µM (inactive) | > 100 µM (inactive) | 47.2 µM (inactive) | 85.1 µM (inactive) | > 100 µM (inactive) | 45.6 µM (inactive) | > 100 µM (inactive) | > 100 µM (inactive) | > 100 µM (inactive)
CCc1n[nH]c(=O)n1NC(=O)CCCC(=O)O | > 100 µM (inactive) | > 100 µM (inactive) | > 100 µM (inactive) | > 100 µM (inactive) | > 100 µM (inactive) | > 100 µM (inactive) | > 100 µM (inactive) | > 100 µM (inactive) | > 100 µM (inactive) | > 100 µM (inactive) | > 100 µM (inactive) | > 100 µM (inactive) | > 100 µM (inactive) | > 100 µM (inactive) | > 100 µM (inactive) | > 100 µM (inactive) | > 100 µM (inactive) | > 100 µM (inactive) | > 100 µM (inactive) | > 100 µM (inactive)
C=CCOC(=O)/C(=C\c1ccc(OC)c(OC)c1)c1ccc(OC)c(OC)c1 | > 100 µM (inactive) | 88.5 µM (inactive) | > 10 µM (inactive) | 40.6 µM (inactive) | 27.5 µM (inactive) | 62.2 µM (inactive) | 91.6 µM (inactive) | > 100 µM (inactive) | 20.7 µM (inactive) | 52.4 µM (inactive) | > 100 µM (inactive) | 59 µM (inactive) | > 100 µM (inactive) | 57.5 µM (inactive) | 42.4 µM (inactive) | > 100 µM (inactive) | 39.1 µM (inactive) | 21.8 µM (inactive) | 42.3 µM (inactive) | > 10 µM (inactive)
CC(C)(C)c1cc(C2=NN(c3ccccc3)C(c3ccccc3)C2)cc(C(C)(C)C)c1O (stereo not given) | > 100 µM (inactive) | > 100 µM (inactive) | > 100 µM (inactive) | > 100 µM (inactive) | 35.7 µM (inactive) | > 100 µM (inactive) | > 100 µM (inactive) | > 100 µM (inactive) | > 100 µM (inactive) | > 100 µM (inactive) | > 100 µM (inactive) | > 100 µM (inactive) | 54.8 µM (inactive) | 35.2 µM (inactive) | > 100 µM (inactive) | > 100 µM (inactive) | > 100 µM (inactive) | > 100 µM (inactive) | > 100 µM (inactive) | > 100 µM (inactive)
CC(C)N(CCCNc1c2ccccc2nc2cccc([N+](=O)[O-])c12)C(C)C | 0.0481 µM (active) | < 0.015 µM (active) | < 0.0206 µM (active) | 0.986 µM (active) | 0.0101 µM (active) | < 0.0418 µM (active) | < 0.0214 µM (active) | < 0.0385 µM (active) | < 0.0224 µM (active) | < 0.0163 µM (active) | < 0.0196 µM (active) | < 0.0224 µM (active) | < 0.023 µM (active) | < 0.0231 µM (active) | < 0.0188 µM (active) | < 0.0216 µM (active) | < 0.0257 µM (active) | 0.014 µM (active) | < 0.01 µM (active) | 0.0246 µM (active)
CCCC(=O)[O-].[Na+] [SODIUM BUTYRATE] | 6250 µM (inactive) | 18700 µM (inactive) | 3520 µM (inactive) | 843 µM (inactive) | 533 µM (inactive) | 2770 µM (inactive) | 543 µM (inactive) | 4450 µM (inactive) | 2520 µM (inactive) | 4790 µM (inactive) | 8040 µM (inactive) | 8170 µM (inactive) | 9910 µM (inactive) | 1000 µM (inactive) | 9440 µM (inactive) | 3000 µM (inactive) | 251 µM (inactive) | 5680 µM (inactive) | 635 µM (inactive) | 18700 µM (inactive)
